Test results taken from ChEMBL document CHEMBL6103580, “Synthesis and biological evaluation of natural cleistanolate, its enantiomer and analogues” (Eur J Med Chem, 2025).
The source made the active and inactive calls. The rule behind the calls is not given here.

What was measured:
Escherichia coli [1] = experiment: Antibacterial activity against Escherichia coli ZPM 132 assessed as reduction in cell viability incubated for 24 hrs by muller hinton broth microdilution based XTT assay; assay type: functional
K562 = experiment: Antiproliferative activity against human K562 cells assessed as inhibition of cell growth incubated for 72 hrs by MTT assay; assay type: functional, cell-based; conditions: K562, 72 h
HL-60 = experiment: Antiproliferative activity against human HL-60 cells assessed as inhibition of cell growth incubated for 72 hrs by MTT assay; assay type: functional, cell-based; conditions: HL-60, 72 h
Jurkat = experiment: Antiproliferative activity against human Jurkat cells assessed as inhibition of cell growth incubated for 72 hrs by MTT assay; assay type: functional, cell-based
Raji = experiment: Antiproliferative activity against human Raji cells assessed as inhibition of cell growth incubated for 72 hrs by MTT assay; assay type: functional, cell-based
MCF7 = experiment: Antiproliferative activity against human MCF7 cells assessed as inhibition of cell growth incubated for 72 hrs by MTT assay; assay type: functional, cell-based; conditions: MCF7, 72 h
MDA-MB-231 = experiment: Antiproliferative activity against human MDA-MB-231 cells assessed as inhibition of cell growth incubated for 72 hrs by MTT assay; assay type: functional, cell-based; conditions: MDA-MB-231, 72 h
HeLa = experiment: Antiproliferative activity against human HeLa cells assessed as inhibition of cell growth incubated for 72 hrs by MTT assay; assay type: functional, cell-based
A549 = experiment: Antiproliferative activity against human A549 cells assessed as inhibition of cell growth incubated for 72 hrs by MTT assay; assay type: functional, cell-based; conditions: A549, 72 h
[2] = Antiproliferative activity against human MRC5 cells assessed as inhibition of cell growth incubated for 72 hrs by MTT assay; assay type: toxicity, cell-based
Escherichia coli [3] = experiment: Antimicrobial activity against Escherichia coli ZPM 132 assessed as reduction in cell viability incubated for 24 hrs by muller hinton broth microdilution based XTT assay; assay type: functional
Vibrio cholerae = experiment: Antibacterial activity against Vibrio cholerae O139 CIRS 245 assessed as reduction in cell viability incubated for 24 hrs by muller hinton broth microdilution based XTT assay; assay type: functional
Streptococcus pneumoniae = experiment: Antibacterial activity against Streptococcus pneumoniae ZPM 187 assessed as reduction in cell viability incubated for 24 hrs by muller hinton broth microdilution based XTT assay; assay type: functional
Candida tropicalis = experiment: Antifungal activity against Candida tropicalis CCY 29-7-62 assessed as reduction in fungal growth incubated for 48 hrs by muller hinton broth microdilution based XTT assay; assay type: functional
[4] = biological target: Cholinesterase (Homo sapiens) (UniProt P06276); experiment: Inhibition of human BChE at 100 uM using acetylthiocholine iodide as substrate by DTNB reagent based Ellman spectrophotometric analysis relative to control
Sequence of Cholinesterase (Homo sapiens) (P06276 whole entry): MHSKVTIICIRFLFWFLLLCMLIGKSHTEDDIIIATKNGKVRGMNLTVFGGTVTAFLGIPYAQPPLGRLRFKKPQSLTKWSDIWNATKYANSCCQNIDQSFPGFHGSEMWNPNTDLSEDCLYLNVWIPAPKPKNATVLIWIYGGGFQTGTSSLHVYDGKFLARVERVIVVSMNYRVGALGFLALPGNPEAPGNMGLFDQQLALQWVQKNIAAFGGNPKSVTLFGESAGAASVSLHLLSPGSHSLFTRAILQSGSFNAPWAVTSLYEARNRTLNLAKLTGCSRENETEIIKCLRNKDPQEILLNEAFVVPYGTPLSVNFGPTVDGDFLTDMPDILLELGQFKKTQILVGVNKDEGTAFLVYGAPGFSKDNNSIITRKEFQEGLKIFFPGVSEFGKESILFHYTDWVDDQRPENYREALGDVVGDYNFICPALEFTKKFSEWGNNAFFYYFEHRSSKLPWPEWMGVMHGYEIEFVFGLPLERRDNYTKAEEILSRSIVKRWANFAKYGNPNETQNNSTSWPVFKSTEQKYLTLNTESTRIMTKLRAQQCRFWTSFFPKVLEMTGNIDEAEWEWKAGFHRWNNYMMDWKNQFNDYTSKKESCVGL

| Compound | MBC (Escherichia coli [1]) | IC50 (K562) | IC50 (HL-60) | IC50 (Jurkat) | IC50 (Raji) | IC50 (MCF7) | IC50 (MDA-MB-231) | IC50 (HeLa) | IC50 (A549) | IC50 at 72 h [2] | MIC (Escherichia coli [3]) | MBC (Vibrio cholerae) | MBC (Streptococcus pneumoniae) | MFC (Candida tropicalis) | inhibition [4] |
| --- | --- | --- | --- | --- | --- | --- | --- | --- | --- | --- | --- | --- | --- | --- | --- |
| CO[C@@H]1CC(=O)O[C@@H]1[C@@H](OC(C)=O)[C@H](COC(=O)c1ccccc1)OC(C)=O | > 1000 µg/mL | 12 µM | 11 µM | 26.3 µM | 22.3 µM | 5.4 µM | 21.7 µM | 2.45 µM | 25.4 µM | 94.8 µM | > 1000 µg/mL | > 100 µg/mL | > 100 µg/mL | > 100 µg/mL | 35% |
| CO[C@H]1CC(=O)O[C@H]1[C@H](OC(C)=O)[C@H](COC(=O)c1ccccc1)OC(C)=O | – | 8.23 µM | 21 µM | 14 µM | 11.2 µM | 5.21 µM | 16.1 µM | 7.02 µM | 8.32 µM | > 100 µM | – | – | – | – | – |
| C=C[C@H](O)[C@H]1OC(=O)C[C@H]1OC | > 1000 µg/mL | 8.05 µM | 11.7 µM | 12.8 µM | 32.9 µM | 4.23 µM | 11.8 µM | 10.9 µM | 28.3 µM | > 100 µM | > 1000 µg/mL | > 100 µg/mL | > 100 µg/mL | > 100 µg/mL | inactive |
| O=C1C[C@@H]2O[C@@H](CI)[C@@H](O)[C@@H]2O1 | > 1000 µg/mL | 15.1 µM | 16.7 µM | 22.8 µM | 26.2 µM | 19.4 µM | 17.7 µM | 20.1 µM | 24.6 µM | > 100 µM | > 1000 µg/mL | > 100 µg/mL | > 100 µg/mL | > 100 µg/mL | inactive |
| CO[C@H]1CC(=O)O[C@H]1[C@H](O)[C@H](O)COC(=O)c1ccccc1 | > 1000 µg/mL | 3.97 µM | 9.45 µM | 16.5 µM | 19.7 µM | 14.1 µM | 45.2 µM | 16 µM | 18.7 µM | > 100 µM | > 1000 µg/mL | > 100 µg/mL | > 100 µg/mL | > 100 µg/mL | inactive |
| CO[C@@H]1CC(=O)O[C@@H]1[C@@H](O)[C@@H](O)COC(=O)c1ccccc1 | – | 11.4 µM | 12.1 µM | 20.2 µM | 15.4 µM | 14.4 µM | 27.7 µM | 7.65 µM | 11.4 µM | > 100 µM | – | – | – | – | – |
| O=C1C[C@@H](O)[C@@H]([C@@H](O)[C@@H](O)CO)O1 | – | 16.5 µM | 19.3 µM | 20.3 µM | 24.4 µM | 19.5 µM | 19.6 µM | 12.9 µM | 23.6 µM | > 100 µM | – | – | – | – | – |
| C=C[C@H](OCc1ccccc1)[C@H]1OC(=O)C[C@H]1OC | – | 7.59 µM | 12.7 µM | 11.6 µM | 34.4 µM | 5.67 µM | 12.6 µM | 11.5 µM | 27.9 µM | > 100 µM | – | – | – | – | – |
| CO[C@H]1CC(=O)O[C@H]1[C@H](OC(=O)c1ccccc1)[C@@H](COC(=O)c1ccccc1)OC(=O)c1ccccc1 | – | 17.9 µM | 6.38 µM | 23.4 µM | 17 µM | 1.31 µM | 23.7 µM | 5.58 µM | 24.1 µM | > 100 µM | – | – | – | – | – |
| Nc1c2c(nc3ccccc13)CCCC2 | – | – | – | – | – | – | – | – | – | – | – | – | – | – | 96% |
| C=C[C@@H](O)[C@@H]1OC(=O)C[C@@H]1OC | – | 2.74 µM | 7.17 µM | 5.36 µM | 18.6 µM | 9.2 µM | 11.9 µM | 4.52 µM | 19.6 µM | > 100 µM | – | – | – | – | – |
| O=C1C[C@H]2O[C@H](CI)[C@H](O)[C@H]2O1 | > 1000 µg/mL | – | – | – | – | – | – | – | – | – | > 1000 µg/mL | > 100 µg/mL | > 100 µg/mL | > 100 µg/mL | inactive |
| CO[C@@H]1CC(=O)O[C@@H]1[C@H]1OC(=O)O[C@H]1COC(=O)c1ccccc1 | – | 10 µM | 10.6 µM | 16 µM | 21.3 µM | 4.31 µM | 25.8 µM | 7.03 µM | 13.4 µM | > 100 µM | – | – | – | – | 51% |
| C=C[C@@H](OCc1ccccc1)[C@@H]1OC(=O)C[C@@H]1OC | – | 4.42 µM | 12.1 µM | 9.85 µM | 12.9 µM | 16.9 µM | 42.3 µM | 26.4 µM | 18.7 µM | > 100 µM | – | – | – | – | – |
| CO[C@@H]1CC(=O)O[C@@H]1[C@@H](OC(=O)c1ccccc1)[C@H](COC(=O)c1ccccc1)OC(=O)c1ccccc1 | > 1000 µg/mL | 3.36 µM | 8.58 µM | 15.9 µM | 14.1 µM | 13.2 µM | 13.5 µM | 15.3 µM | 14.1 µM | > 100 µM | > 1000 µg/mL | > 100 µg/mL | > 100 µg/mL | > 100 µg/mL | 40% |
| CO[C@@H]1CC(=O)O[C@@H]1[C@@H](O)[C@H](O)COC(=O)c1ccccc1 | – | 10.6 µM | 18.9 µM | 15.6 µM | 19.4 µM | 15.6 µM | 31.2 µM | 8.61 µM | 25.6 µM | > 100 µM | – | – | – | – | – |
| C=C[C@H](OCc1ccccc1)[C@H]1OC(=O)C[C@H]1O | – | 25.1 µM | 23.4 µM | 29.1 µM | 34.8 µM | 19.2 µM | 12.9 µM | 17 µM | 17.2 µM | > 100 µM | – | – | – | – | – |
| CO[C@H]1CC(=O)O[C@H]1[C@H](O)[C@@H](O)COC(=O)c1ccccc1 | – | 9.89 µM | 10.3 µM | 32 µM | 21 µM | 12.8 µM | 19.9 µM | 10.6 µM | 29.6 µM | > 100 µM | – | – | – | – | – |
